What was measured:
[1] = system: Botryotinia fuckeliana (Botrytis cinerea); assay: Botryotinia fuckeliana (Botrytis cinerea) / liquid culture (gray mould); format: cell-based; conditions: 72 h, 200 ppm, compared to untreated control, growth inhibition photometrically 3-4 days after application, read-out: disease control
Fusarium culmorum [2] = assay: microbe, parasite or virus in culture; format: cell-based; conditions: read-out: disease control
[3] = system: Monographella nivalis (Microdochium nivale); assay: Monographella nivalis (Microdochium nivale) / liquid culture (foot rot cereals); format: cell-based; conditions: 200 ppm, compared to untreated control, growth inhibition photometrically 4-5 days after application, read-out: disease control
[4] = system: Magnaporthe grisea (Pyricularia oryzae); assay: microbe, parasite or virus in culture; format: cell-based; conditions: read-out: control of Magnaporthe grisea
Pyrenophora teres = Pyrenophora teres / barley / leaf disc preventative (net blotch); format: in vivo, Pyrenophora teres on barley leaf segments cv. Hasso; conditions: foliar, barley leaf segments, compared to untreated control, 5-7 days after application
[5] = system: Glomerella lagenarium (Colletotrichum lagenarium); assay: Glomerella lagenarium (Colletotrichum lagenarium) / liquid culture (anthracnose); format: cell-based; conditions: Colletotrichum orbiculare; 200 ppm; compared to untreated control; growth inhibition photometrically 3-4 days after application; read-out: disease control
Gaeumannomyces graminis = Gaeumannomyces graminis / liquid culture (take-all of cereals); format: cell-based; conditions: compared to untreated control, 4-5 days after application
Sclerotinia sclerotiorum = Sclerotinia sclerotiorum / liquid culture (cottony rot); conditions: read-out: control of Sclerotinia sclerotiorum
Description: Sclerotinia sclerotiorum/Liquid Culture (Cottony Rot)
Mycelia fragments of a newly grown liquid culture of the fungus are directly mixed into nutrient broth (Vogels broth). After placing a (DMSO) solution of test compound into a microtiter plate (96-well format) the nutrient broth containing the fungal material is added. The test plates are incubated at 24° C. and the inhibition of growth is determined photometrically 3-4 days after application.

Fusarium culmorum [6] = assay: whole plant or invertebrate; format: in vivo, Fusarium culmorum on wheat spikelets cv. Monsun; conditions: in Triticum aestivum, 144 h, read-out: control of Fusarium culmorum

## Cc1cccc2cc(C(=O)NC(C#Cc3ccccc3)C(C)C)cnc12 (stereo not shown) [Compound F-1, N-(1-isopropyl-3-phenyl-prop-2-ynyl)-8-methyl-quinoline-3-carboxamide]
[1]
  inhibition of growth at 200 ppm: ≥ 80%
Fusarium culmorum [2]
  inhibition of growth at 200 ppm: ≥ 80%
[3]
  inhibition of growth at 200 ppm: ≥ 80%
[4]
  inhibition of growth at 20 ppm: ≥ 80%
Pyrenophora teres
  pest or weed control at 200 ppm: ≥ 80%

## CC(C)C(C#Cc1ccccc1)NC(=O)c1cnc2c(Cl)cccc2c1 (stereo not shown) [Compound F-2, 8-chloro-N-(1-isopropyl-3-phenyl-prop-2-ynyl)quinoline-3-carboxamide]
Fusarium culmorum [2]
  inhibition of growth at 200 ppm: ≥ 80%
[3]
  inhibition of growth at 200 ppm: ≥ 80%
Pyrenophora teres
  pest or weed control at 200 ppm: ≥ 80%
other
  melting point: 168 to 170 °C

## CC(C)(C)C(C#Cc1ccccc1)NC(=O)c1cnc2c(F)cccc2c1 (stereo not shown) [Compound F-5, N-(1-tert-butyl-3-phenyl-prop-2-ynyl)-8-fluoro-quinoline-3-carboxamide]
[1]
  inhibition of growth at 200 ppm: ≥ 80%
Fusarium culmorum [2]
  inhibition of growth at 200 ppm: ≥ 80%
[5]
  inhibition of growth at 200 ppm: ≥ 80%
[3]
  inhibition of growth at 200 ppm: ≥ 80%
[4]
  inhibition of growth at 20 ppm: ≥ 80%
Gaeumannomyces graminis
  inhibition of growth at 20 ppm: ≥ 80%
other
  melting point: 179 to 181 °C
Sclerotinia sclerotiorum
  inhibition of growth at 20 ppm: ≥ 80%

## CC(C)CC(C)(C#Cc1ccccc1)NC(=O)c1cnc2c(F)cccc2c1 (stereo not shown) [Compound F-7, N-[1,3-dimethyl-1-(2-phenylethynyl)butyl]-8-fluoro-quinoline-3-carboxamide]
[1]
  inhibition of growth at 200 ppm: ≥ 80%
Fusarium culmorum [2]
  inhibition of growth at 200 ppm: ≥ 80%
[5]
  inhibition of growth at 200 ppm: ≥ 80%
[3]
  inhibition of growth at 200 ppm: ≥ 80%
[4]
  inhibition of growth at 20 ppm: ≥ 80%
Fusarium culmorum [6]
  pest or weed control at 200 ppm: ≥ 80%
Gaeumannomyces graminis
  inhibition of growth at 20 ppm: ≥ 80%
other
  melting point: 138 to 141 °C
Sclerotinia sclerotiorum
  inhibition of growth at 20 ppm: ≥ 80%

## CCC(C)(C#Cc1ccccc1)NC(=O)c1cnc2c(C)cccc2c1 (stereo not shown) [Compound F-9, N-(1-ethyl-1-methyl-3-phenyl-prop-2-ynyl)-8-methyl-quinoline-3-carboxamide]
[1]
  inhibition of growth at 200 ppm: ≥ 80%
Fusarium culmorum [2]
  inhibition of growth at 200 ppm: ≥ 80%
[5]
  inhibition of growth at 200 ppm: ≥ 80%
[3]
  inhibition of growth at 200 ppm: ≥ 80%
[4]
  inhibition of growth at 20 ppm: ≥ 80%
Fusarium culmorum [6]
  pest or weed control at 200 ppm: ≥ 80%
other
  melting point: 135 to 137 °C
Sclerotinia sclerotiorum
  inhibition of growth at 20 ppm: ≥ 80%

## CCC(C)(C#Cc1ccccc1)NC(=O)c1cnc2c(C#N)cccc2c1 (stereo not shown) [Compound F-10, 8-cyano-N-(1-ethyl-1-methyl-3-phenyl-prop-2-ynyl)quinoline-3-carboxamide]
[1]
  inhibition of growth at 200 ppm: ≥ 80%
Fusarium culmorum [2]
  inhibition of growth at 200 ppm: ≥ 80%
[5]
  inhibition of growth at 200 ppm: ≥ 80%
[3]
  inhibition of growth at 200 ppm: ≥ 80%
[4]
  inhibition of growth at 20 ppm: ≥ 80%
Fusarium culmorum [6]
  pest or weed control at 200 ppm: ≥ 80%
Gaeumannomyces graminis
  inhibition of growth at 20 ppm: ≥ 80%
other
  melting point: 172 to 174 °C
Sclerotinia sclerotiorum
  inhibition of growth at 20 ppm: ≥ 80%

## CCC(C)(C#Cc1ccccc1)NC(=O)c1cnc2c(Cl)cccc2c1 (stereo not shown) [Compound F-11, 8-chloro-N-(1-ethyl-1-methyl-3-phenyl-prop-2-ynyl)quinoline-3-carboxamide]
[1]
  inhibition of growth at 200 ppm: ≥ 80%
Fusarium culmorum [2]
  inhibition of growth at 200 ppm: ≥ 80%
[5]
  inhibition of growth at 200 ppm: ≥ 80%
[3]
  inhibition of growth at 200 ppm: ≥ 80%
[4]
  inhibition of growth at 20 ppm: ≥ 80%
Fusarium culmorum [6]
  pest or weed control at 200 ppm: ≥ 80%
Pyrenophora teres
  pest or weed control at 200 ppm: ≥ 80%
other
  melting point: 161 to 162 °C
Sclerotinia sclerotiorum
  inhibition of growth at 20 ppm: ≥ 80%

## CCC(C)(C#Cc1ccccc1)NC(=O)c1cnc2c(F)cccc2c1 (stereo not shown) [Compound F-17, N-(1-ethyl-1-methyl-3-phenyl-prop-2-ynyl)-8-fluoro-quinoline-3-carboxamide]
[1]
  inhibition of growth at 200 ppm: ≥ 80%
Fusarium culmorum [2]
  inhibition of growth at 200 ppm: ≥ 80%
[5]
  inhibition of growth at 200 ppm: ≥ 80%
[3]
  inhibition of growth at 200 ppm: ≥ 80%
[4]
  inhibition of growth at 20 ppm: ≥ 80%
Fusarium culmorum [6]
  pest or weed control at 200 ppm: ≥ 80%
Pyrenophora teres
  pest or weed control at 200 ppm: ≥ 80%
other
  melting point: 129 to 132 °C

## Cc1ccc(C#CC(C)(C)NC(=O)c2cnc3c(F)cccc3c2)cc1 [Compound F-21, N-[1,1-dimethyl-3-(p-tolyl)prop-2-ynyl]-8-fluoro-quinoline-3-carboxamide]
[1]
  inhibition of growth at 200 ppm: ≥ 80%
Fusarium culmorum [2]
  inhibition of growth at 200 ppm: ≥ 80%
[5]
  inhibition of growth at 200 ppm: ≥ 80%
[3]
  inhibition of growth at 200 ppm: ≥ 80%
Pyrenophora teres
  pest or weed control at 200 ppm: ≥ 80%

## COc1cccc(C#CC(C)(C)NC(=O)c2cnc3c(F)cccc3c2)c1 [Compound F-29, 8-fluoro-N-[3-(3-methoxyphenyl)-1,1-dimethyl-prop-2-ynyl]quinoline-3-carboxamide]
[1]
  inhibition of growth at 200 ppm: ≥ 80%
Fusarium culmorum [2]
  inhibition of growth at 200 ppm: ≥ 80%
[5]
  inhibition of growth at 200 ppm: ≥ 80%
[3]
  inhibition of growth at 200 ppm: ≥ 80%
Fusarium culmorum [6]
  pest or weed control at 200 ppm: ≥ 80%
Pyrenophora teres
  pest or weed control at 200 ppm: ≥ 80%

## Cc1ccc(C#CC(C)(C)NC(=O)c2cnc3c(F)cccc3c2)s1 [Compound F-35, N-[1,1-dimethyl-3-(5-methyl-2-thienyl)prop-2-ynyl]-8-fluoro-quinoline-3-carboxamide]
[1]
  inhibition of growth at 200 ppm: ≥ 80%
Fusarium culmorum [2]
  inhibition of growth at 200 ppm: ≥ 80%
[3]
  inhibition of growth at 200 ppm: ≥ 80%
Pyrenophora teres
  pest or weed control at 200 ppm: ≥ 80%

## CC(C)(C#Cc1ccccc1)NC(=O)c1cnc2c(F)cccc2c1 [Compound F-55, N-(1,1-dimethyl-3-phenyl-prop-2-ynyl)-8-fluoro-quinoline-3-carboxamide]
[1]
  inhibition of growth at 200 ppm: ≥ 80%
Fusarium culmorum [2]
  inhibition of growth at 200 ppm: ≥ 80%
[5]
  inhibition of growth at 200 ppm: ≥ 80%
[3]
  inhibition of growth at 200 ppm: ≥ 80%
Pyrenophora teres
  pest or weed control at 200 ppm: ≥ 80%
Gaeumannomyces graminis
  inhibition of growth at 20 ppm: ≥ 80%
other
  melting point: 151 to 155 °C

## CC(C)C[C@@H](C#Cc1ccccc1)NC(=O)c1cnc2c(F)cccc2c1 [Compound G-4, 8-fluoro-N-[(1S)-3-methyl-1-(2-phenylethynyl)butyl]quinoline-3-carboxamide]
[1]
  inhibition of growth at 200 ppm: ≥ 80%
Fusarium culmorum [2]
  inhibition of growth at 200 ppm: ≥ 80%
[5]
  inhibition of growth at 200 ppm: ≥ 80%
[4]
  inhibition of growth at 20 ppm: ≥ 80%
Fusarium culmorum [6]
  pest or weed control at 200 ppm: ≥ 80%
Pyrenophora teres
  pest or weed control at 200 ppm: ≥ 80%
Gaeumannomyces graminis
  inhibition of growth at 20 ppm: ≥ 80%

## CC(C)C[C@@](C)(C#Cc1ccccc1)NC(=O)c1cnc2c(F)cccc2c1 [Compound G-5, N-[(1S)-1,3-dimethyl-1-(2-phenylethynyl)butyl]-8-fluoro-quinoline-3-carboxamide]
[1]
  inhibition of growth at 200 ppm: ≥ 80%
Fusarium culmorum [2]
  inhibition of growth at 200 ppm: ≥ 80%
[5]
  inhibition of growth at 200 ppm: ≥ 80%
[3]
  inhibition of growth at 200 ppm: ≥ 80%
[4]
  inhibition of growth at 20 ppm: ≥ 80%
Gaeumannomyces graminis
  inhibition of growth at 20 ppm: ≥ 80%
other
  melting point: 124 to 127 °C
Sclerotinia sclerotiorum
  inhibition of growth at 20 ppm: ≥ 80%
